Columns and labels:
[1] = system: Spodoptera littoralis larvae; assay: Insecticidal activity, sprayed diet (Test 1 (a)), toxicity vs parathion; type: in vivo, Egyptian cotton leafworm (Spodoptera littoralis); settings: second instar larvae; mortality 7 days after spraying; 50% mortality basis; standard parathion = 100
Protocol: (§1) The insecticidal and ovicidal activities of the compounds of the invention were assessed employing the pests, Egyptian cotton leafworm (Spodoptera littoralis, S.l.), mosquito (Aedes aegypti, A.a.) and eggs of Spodoptera littoralis, S.l.ov.
(§2) The test methods used for each species are described below. In each case the tests were conducted under normal insectary conditions (28° C.[…]; fluctuating light and humidity).
(§3) In each instance, the toxicity of the compound of the invention was compared to that of a standard pesticide (parathion), its relative toxicity then being expressed in terms of the relationship between the amount of compound of the invention and the amount of the standard pesticide required to produce the same percentage (50%) of mortality in the test insect. By assigning the standard pesticide an arbitrary rating of 100, the toxicities of the compounds of the invention were expressed in terms of the toxicity indices, which compares the toxicity of the compounds of the invention with that of the standard pesticide.
(a) Spodoptera littoralis--A solution or suspension of the test compound was made up over a range of concentrations in 10% acetone/water containing 0.025% Triton X100 (as surfactant). These solutions were sprayed using a logarithmic spraying machine onto petri dishes containing a nutritious diet on which the Spodoptera littoralis larvae had been reared. When the spray deposit had dried each dish was infested with 10 second instar larvae. Mortality assessments were made 7 days after spraying.

Aedes aegypti larvae = assay: Insecticidal activity, larvae in treated water (Test 1 (b)), toxicity vs parathion; type: in vivo, mosquito (Aedes aegypti); design: key: Toxicity Index: parathion = 100; 200 = twice as active, 50 = half; settings: early fourth instar larvae; final mortality when all larvae emerged as adults or died; 50% mortality basis; standard parathion = 100
Protocol: as §1, §2
as §3, with “pesticide. That is to say, a test compound having a Toxicity Index of 50 would be half as active, while one having a Toxicity Index of 200 would be twice as active as the standard pesticide.” for “pesticide.”
(b) Aedes aegypti--Several solutions of the test compound of varying concentration were prepared in acetone. 100 microliter quantities were added to 100 milliliters of tap water, the acetone being allowed to evaporate off. Ten early fourth instar larvae were placed in the test solution; after 48 hours the (surviving) larvae were fed with animal feed pellets, and the final percentage mortality assessed when all the larvae had either pupated and emerged as adults or died.

[2] = system: eggs of Spodoptera littoralis; assay: Ovicidal activity, sprayed eggs (Test 1 (c)), toxicity vs parathion; type: in vivo, Egyptian cotton leafworm (Spodoptera littoralis); settings: eggs less than 24 hours old; approximately five days; 50% mortality basis; standard parathion = 100
Protocol: as §1, §2
as §3, with “pesticide. That is to say, a test compound having a Toxicity Index of 50 would be half as active, while one having a Toxicity Index of 200 would be twice as active as the standard pesticide.” for “pesticide.”
(c) Spodoptera littoralis (ovicide)--Solutions as described in (a) above were prepared. Eggs less than 24 hours old were obtained as follows. Adult Spodoptera littoralis were held in large plastic cylinders containing blotting paper on which the moths laid their batches of eggs. Egg batches containing approximately 60-70 eggs were cut from the blotting paper with a 1 cm surround. These were placed, eggs uppermost, on filter paper in the deeper half of 5 cm disposable petri dishes and each batch of eggs was then sprayed with a different test solution or the control solution. The dishes were covered until the control eggs had hatched, approximately five days. The percentage ovicidal mortality was then calculated.

Compound | Toxicity Index S.l. [1] | Toxicity Index A.a. (Aedes aegypti larvae) | Toxicity Index S.l.ov. [2]
O=C(NC(=O)N(Sc1ccc([N+](=O)[O-])cc1)c1ccc(C(F)(F)F)cc1)c1c(F)cccc1F [Example 21] | 96 | 13 | 
O=C(NC(=O)N(Sc1ccc(Cl)cc1)c1ccc(C(F)(F)F)cc1)c1c(F)cccc1F [Example 27] | 220 | 21 | 2200
Cc1ccc(SN(C(=O)NC(=O)c2c(F)cccc2F)c2ccc(Cl)cc2)cc1 [Example 11] | 23 | 25 | 680
O=C(NC(=O)N(SC(Cl)(Cl)Cl)c1ccc(Oc2ccc(C(F)(F)F)cc2Cl)cc1)c1ccccc1Cl [Example 7, 2-Chloro-N-[[[4-[2-chloro-4-(trifluoromethyl)phenoxy]phenyl]-N-[(trichloromethyl)thio]amino]carbonyl]benzamide] | 1800 | 55 | 0
O=C(NC(=O)N(Sc1ccc(Cl)cc1)c1ccc(Cl)cc1)c1c(F)cccc1F [Example 12] | 17 | 14 | 
O=C(NC(=O)N(Sc1ccc([N+](=O)[O-])cc1[N+](=O)[O-])c1ccc(C(F)(F)F)cc1)c1c(F)cccc1F [Example 22] | 220 | 51 | 2300
O=C(NC(=O)N(Sc1ccccc1[N+](=O)[O-])c1ccc(C(F)(F)F)cc1)c1c(F)cccc1F [Example 20] | 160 | 180 | 1800
CC(C)c1ccccc1SN(C(=O)NC(=O)c1ccccc1Cl)c1ccc(OC(F)(F)F)cc1 [Example 32] | 88 | 28 | 2000
O=C(NC(=O)N(Sc1ccc(Cl)cc1)c1ccc(OC(F)(F)F)cc1)c1ccccc1Cl [Example 33] | 57 | 44 | 1300
O=C(NC(=O)N(Sc1ccccc1[N+](=O)[O-])c1ccc(Cl)cc1)c1c(F)cccc1F [Example 5, N-[[[4-Chlorophenyl]-N-[(2-nitrophenyl)thio]amino]carbonyl]-2,6-difluorobenzamide] | 90 | 220 | 0-4
O=C(NC(=O)N(Sc1ccccc1)c1ccc(Cl)cc1)c1c(F)cccc1F [Example 8] | 16 | 22 | 480
Cc1ccc(SN(C(=O)NC(=O)c2ccccc2Cl)c2ccc(Oc3ccc(C(F)(F)F)cc3Cl)cc2)cc1 [Example 34] | 1200 | 130 | 0
Cc1ccc(SN(C(=O)NC(=O)c2ccccc2Cl)c2ccc(OC(F)(F)F)cc2)cc1 [Example 23] | 140 | 145 | 1500
O=C(NC(=O)N(SC(Cl)(Cl)Cl)c1ccc(C(F)(F)F)cc1)c1c(F)cccc1F [Example 6, 2,6-Difluoro-N-[[[(trichloromethyl)thio]-N-[4-(trifluoromethyl)phenyl]amino]carbonyl]benzamide] | 260 | 34 | 400
O=C(NC(=O)N(SC(Cl)(Cl)Cl)c1ccc(Cl)cc1)c1c(F)cccc1F [Example 14] | 10 | 6 | 560
Cc1ccccc1SN(C(=O)NC(=O)c1ccccc1Cl)c1ccc(OC(F)(F)F)cc1 [Example 4, 2-Chloro-N-[[[4-(trifluoromethoxy)phenyl]-N-[(2-methylphenyl)thio]amino]carbonyl]benzamide] | 110 | 77 | 2200
Cc1ccccc1SN(C(=O)NC(=O)c1c(F)cccc1F)c1ccc(C(F)(F)F)cc1 [Example 16] | 550 |  | 2700

— patent US4497822A, “Insecticidal N-benzoyl-N'-phenyl-N'-(R-thio)ureas” (Shell Oil Company, priority 1982, dated 1985)
